From patent US20160030391A1, “METHODS AND COMPOSITIONS FOR IMPROVING COGNITIVE FUNCTION” (THE JOHNS HOPKINS UNIVERSITY, priority 2013, published 2016)
“Also recorded” adds a separate entry of the source.

Legend:
[1] = system: Dentate Gyrus/CA3 region of aMCI patients; experiment: fMRI activity in DG/CA3 during lure stimuli correctly identified as similar; type: in vivo, human; conditions: aMCI subjects
[2] = system: reelin in Entorhinal Cortex (EC2); experiment: reelin in situ hybridization in entorhinal cortex after chronic levetiracetam; type: in vivo, rat; conditions: levetiracetam 10 mg/kg/day, osmotic minipumps, four weeks (28 days), aged-impaired rats
Protocol: (§1) Under isoflurane anesthesia, memory-impaired aged rats were implanted subcutaneously in the intrascapular region with osmotic mini-pumps (ALZET, Durect Corporation, Cupertino, Calif.) with levetiracetam (10 mg/kg/day) or saline vehicle for four weeks prior to perfusion. Young rats, which served as controls, received either saline vehicle in mini-pumps or no implantation.
At the end of the 4-week treatment period, rats were anesthetized with isoflurane and perfused transcardiacally with 0.1 M phosphate buffer saline, followed by 4% paraformaldehyde in phosphate buffer. Brains were removed and post-fixed in paraformaldehyde overnight. The brains were then moved into 4% paraformaldehyde in phosphate buffer containing 16% sucrose. […]
Probe templates were synthesized as described in Haberman et al. (2008). […] The final probe was resuspended in RNase-free water and the specific activity was determined by scintillation counter.
In situ hybridization was carried out as described by Haberman et al., (2008). […] Slides were dried overnight, exposed to a phosphoimager screen, and quantified by using ImageQuant (GE Healthcare). Digital images were acquired of entorhinal cortical sections from the same levels for all animals and the subregion of interest was outlined and quantified. […]

[3] = system: aMCI subjects; experiment: Verbal Paired Associates Test - Recognition; type: in vivo, human; conditions: levetiracetam 125 mg twice a day for two weeks
Excerpt: Breaks are provided to the subject as needed.

[4] = levetiracetam blood plasma levels in aged-impaired rats; type: in vivo; conditions: rat, 60 mg/kg/day, 28-day treatment, read-out: mean levetiracetam blood plasma level
Excerpt: Rats: Blood was drawn from aged-impaired rats by cardiac puncture during perfusion after a 28-day levetiracetam treatment period and sent for analysis of levetiracetam plasma levels by MedTox Laboratories in St. Paul, Minn.

[5] = system: aMCI subjects; experiment: Buschke Selective Reminding Test - Delayed Recall; type: in vivo, human; conditions: levetiracetam 125 mg twice a day for two weeks
[6] = system: somatostatin in DG hilus; experiment: anti-SOM immunohistochemistry, hilar interneuron counts after chronic levetiracetam; type: in vivo, rat; conditions: levetiracetam 10 mg/kg/day, osmotic minipumps, four weeks, aged-impaired rats
Protocol: as §1
At the end of the 4-week treatment period, rats were anesthetized with isoflurane and perfused transcardiacally with 0.1 M phosphate buffer saline, followed by 4% paraformaldehyde in phosphate buffer. Brains were removed and post-fixed in paraformaldehyde overnight. […]
Tissue was labeled with anti-SOM antiserum (Santa Cruz Biotechnology; cat. no. SC7819-P) using an established immunoperoxidase protocol and tissue sections were processed concurrently to minimize inter-replication variability (Haberman et al., 2009). […] The secondary antibody was detected with avidin-biotin complex (ABC Elite; Vector Laboratories Inc., Burlingame, Calif.) and the avidin-biotin complex was visualized with nickel-enhanced diaminobenzadine (Vector Laboratories Inc., Burlingame, Calif.). […]
Interneuron quantification was performed using a Zeiss Axioplan 2 microscope equipped with a motorized stage. […] Neuron counts were analyzed as the total number of hilar interneurons per hippocampal section for each rat.

## CC[C@@H](C(N)=O)N1CCCC1=O [levetiracetam, (2S)-2-(2-oxopyrrolidin-1-yl)butanamide]
[1]; levetiracetam 62.5 mg BID for two weeks
  DG/CA3 hyperactivity (fMRI): does not significantly reduce
[1]; levetiracetam 125 mg twice a day for two weeks vs placebo
  DG/CA3 activity during successful memory judgments (fMRI): reduces DG/CA3 hyper-activity
[1]; levetiracetam 250 mg BID for two weeks
  DG/CA3 hyperactivity (fMRI): does not significantly reduce
[2]
  levels of reelin in Entorhinal Cortex (EC2) (reelin mRNA expression): significantly increased; also recorded: restores
[3]
  performance in Verbal Paired Associates Test—Recognition: fail to rescue performance
[4]
  concentration at 28 days: 22400 ng/mL
[5]
  performance in Buschke Selective Reminding Test—Delayed Recall: fail to rescue performance
[6]
  levels of somatostatin in DG hilus (SOM-immunoreactive hilar neurons): restores
